A short description of one data set: Cytotoxicity, MTT method. On the procedure: (§1) Compounds were tested for their antimicrobial activity against […] fungi (Candida albicans, Mucor hiemails, Pichia anomala, Rhodotorula glutinis and Schizosaccharomyces pombe), four different Gram-positive bacteria (Bacillus subtilis, Micrococcus luteus, Mycobacterium smegmatis and Staphylococcus aureus), and three Gram-negative bacteria (Chromobacterium violaceum, Escherichia coli and Pseudomonas aeruginosa), using oxytetracycline as a positive control against Gram-positive and Gram-negative bacteria, while nystatin was used as an antifungal positive control. Besides, cytotoxicities of the compounds against seven mammalian cell lines (human endocervical adenocarcinoma KB 3.1, breast cancer MCF-7, lung cancer A549, ovary cancer SK-OV-3, prostate cancer PC-3, squamous cancer A431, and mouse fibroblasts L929) were determined by the microculture tetrazolium test (MTT) method, using epothilon B as the positive control. Both bioactivity assays were performed following our standard protocols.

For a further data set, the system named is Mycobacterium smegmatis. Kind of data set: MIC, antibacterial test. The data set is classed as cell-based. Also on record: key: –: no inhibition observed under test conditions. Here is the method:
as §1

The subject of the next data set is Rhodotorula glutinis. Nature of the data set: MIC, antifungal test. The class given is cell-based. Also on record: key to Minimum inhibitory concentration (MIC): –: no inhibition observed under test conditions. The settings on record: for MIC: read-out: Minimum inhibitory concentration (MIC). Here is the method:
as §1

Data set [1] relates to Schizosaccharomyces pombe. Nature of the data set: MIC, antifungal test. The class given is cell-based. Also on record: key to Minimum inhibitory concentration (MIC): –: no inhibition observed under test conditions. Here is the method:
as §1

The next data set deals with Candida albicans. Kind of data set: MIC, antifungal test. The data set is classed as cell-based. Also on record: key to Minimum inhibitory concentration (MIC): –: no inhibition observed under test conditions. On the procedure: as §1
Another data set deals with Pichia anomala. Kind of data set: MIC, antifungal test. The class given is cell-based. Also noted: key to Minimum inhibitory concentration (MIC): –: no inhibition observed under test conditions. On the procedure: as §1
A further data set deals with Mucor hiemalis. Kind of data set: MIC, antifungal test. The data set is classed as cell-based. The settings on record: for MIC: read-out: Minimum inhibitory concentration (MIC). Also on record: key to Minimum inhibitory concentration (MIC): –: no inhibition observed under test conditions. On the procedure:
as §1

Data set [2] relates to Chromobacterium violaceum. Nature of the data set: MIC, antibacterial test. The class given is cell-based. Also noted: key to Minimum inhibitory concentration (MIC): –: no inhibition observed under test conditions. Here is the method: as §1
The test system of a further data set is Pseudomonas aeruginosa. Kind of data set: MIC, antibacterial test. The class given is cell-based. Also noted: key to Minimum inhibitory concentration (MIC): –: no inhibition observed under test conditions. On the procedure:
as §1

The next data set has as its system Escherichia coli. Nature of the data set: MIC, antibacterial test. Also noted: key to Minimum inhibitory concentration (MIC): –: no inhibition observed under test conditions. The data set is classed as cell-based. Here is the method: as §1
The subject of another data set is Staphylococcus aureus. Kind of data set: MIC, antibacterial test. The data set is classed as cell-based. The settings on record: read-out: Minimum inhibitory concentration (MIC). On the procedure: as §1
The subject of another data set is Micrococcus luteus. Kind of data set: MIC, antibacterial test. The data set is classed as cell-based. The settings on record: read-out: Minimum inhibitory concentration (MIC). Here is the method: as §1
The subject of a further data set is Bacillus subtilis. Nature of the data set: MIC, antibacterial test. The settings on record: read-out: Minimum inhibitory concentration (MIC). The data set is classed as cell-based. On the procedure:
as §1

Data set [3] relates to KB 3.1, L929, A549, SK-OV-3, PC-3, A431, and MCF-7 mammalian cell lines. Nature of the data set: Cytotoxicity, summary over all tested cell lines. The class given is cell-based. The settings on record: seven mammalian cell lines; read-out: IC50 values, range over all tested cell lines. On the procedure:
as §1

Where [4] appears, read: human, A431 squamous cancer cells.
Setting [5] is: human, KB 3.1 endocervical adenocarcinoma cells.
[6] abbreviates: human, MCF-7 breast cancer cells.
[7] abbreviates: human, PC-3 prostate cancer cells.
[8] abbreviates: human, SK-OV-3 ovary cancer cells.
Where [9] appears, read: read-out: Minimum inhibitory concentration (MIC).

pIC50: −log10 of the molar value. In brackets after ≈: the same amount, converted by molar mass.

For `CCCC(=O)O[C@H]1c2cc(C)cc(O)c2C(=O)C2=C(O)[C@H]3C=C[C@]21Cc1cc2c(c(O)c13)C(=O)C1=C(O)CC[C@H](O)[C@@]1(C(=O)OC)O2` [Compound 1, Xanthoquinodin A11], the pIC50 in the data set “Cytotoxicity, MTT method” (mouse) was 5.95; in [3], 5.84 to 7.52. The “Minimum inhibitory concentration (MIC)” value (in the data set with Mycobacterium smegmatis; with Rhodotorula glutinis; in data set [1]; in the data set with Candida albicans; with Pichia anomala; in data set [2]) was “–” in each case. The “Minimum inhibitory concentration (MIC)” value with Pseudomonas aeruginosa and with Escherichia coli was “–” each time. Also, the MIC with Mucor hiemalis amounted to 66.7 µg/mL (≈ 103 µM); in the data set with Staphylococcus aureus it was 2.1 µg/mL (≈ 3.26 µM); with Micrococcus luteus, 4.2 µg/mL (≈ 6.52 µM); with Bacillus subtilis it was 0.4 µg/mL (≈ 0.621 µM).

`CCCC(=O)O[C@H]1c2cc(C)cc(O)c2C(=O)C2=C(O)[C@H]3C=C[C@]21Cc1cc(O)c2c(c13)O[C@@]1(C(=O)OC)C(=C(O)CC[C@@H]1O)C2=O` [Compound 2, Xanthoquinodin B10]: the pIC50 in “Cytotoxicity, MTT method” (setting [4]) is 7.22; in the data set “Cytotoxicity, MTT method” (human, A549 lung cancer cells), 6.40; in “Cytotoxicity, MTT method” (setting [5]), 6.72; in “Cytotoxicity, MTT method” (setting [6]), 7.40; in the data set “Cytotoxicity, MTT method” (setting [7]), 5.97; in the data set “Cytotoxicity, MTT method” (setting [8]), 6.89. For the same compound, the pIC50 in the data set “Cytotoxicity, MTT method” (mouse, L929 fibroblasts) was 5.84; in data set [3] it was 5.84 to 7.52. Further, the “Minimum inhibitory concentration (MIC)” value (in the data set on Mycobacterium smegmatis; in the data set with Rhodotorula glutinis; in [1]; in the data set on Candida albicans; with Pichia anomala; with Mucor hiemalis) was “–” throughout. Also, the “Minimum inhibitory concentration (MIC)” value (in data set [2]; in the data set on Pseudomonas aeruginosa; with Escherichia coli) was “–” throughout. Further, the MIC was 2.1 µg/mL (≈ 3.26 µM) in the data set on Staphylococcus aureus, 2.1 µg/mL (≈ 3.26 µM) with Micrococcus luteus and 0.4 µg/mL (≈ 0.621 µM) in the data set on Bacillus subtilis.

Turning to `CCCC(=O)O[C@H]1c2cc(C)cc(O)c2C(=O)C2=C(O)[C@H]3C=C[C@]21Cc1cc(O)c2c(c13)O[C@]1(C(=O)OC)C(=C(O)CC[C@@H]1O)C2=O` [Compound 3, Xanthoquinodin B11], the pIC50 in “Cytotoxicity, MTT method” (setting [4]) is 7.30; in the data set “Cytotoxicity, MTT method” (human, A549 lung cancer cells) it was 6.59; in the data set “Cytotoxicity, MTT method” (setting [5]), 6.82; in the data set “Cytotoxicity, MTT method” (setting [6]) it was 7.40; in “Cytotoxicity, MTT method” (setting [7]), 6.19; in the data set “Cytotoxicity, MTT method” (setting [8]), 6.82. Moreover, the negative-log IC50 (pIC50) in the data set “Cytotoxicity, MTT method” (mouse, L929 fibroblasts) is 6.01; in [3], 5.84 to 7.52. Moreover, the “Minimum inhibitory concentration (MIC)” value with Mycobacterium smegmatis is listed as “–”; in the data set on Rhodotorula glutinis, 2.10 µg/mL (≈ 3.26 µM); with Pichia anomala, 8.30 µg/mL (≈ 12.9 µM); with Mucor hiemalis, 2.10 µg/mL (≈ 3.26 µM); in [2] it was “–”; in the data set with Pseudomonas aeruginosa, “–”. Also, the “Minimum inhibitory concentration (MIC)” value in the data set with Escherichia coli is given as “–”. The MIC with Rhodotorula glutinis was found to be 2.1 µg/mL (≈ 3.26 µM); in [1] (setting [9]), 66.7 µg/mL (≈ 103 µM); with Candida albicans (setting [9]) it was 16.7 µg/mL (≈ 25.9 µM); with Pichia anomala (Hansenula anomala, read-out: Minimum inhibitory concentration (MIC)), 8.3 µg/mL (≈ 12.9 µM); in the data set on Mucor hiemalis it was 2.1 µg/mL (≈ 3.26 µM); with Staphylococcus aureus it was 1 µg/mL (≈ 1.55 µM). In addition, the MIC in the data set on Micrococcus luteus stood at 2.1 µg/mL (≈ 3.26 µM); with Bacillus subtilis it was 0.2 µg/mL (≈ 0.31 µM).

In the case of `CCCC(=O)O[C@H]1c2cc(C)cc(O)c2C(=O)C2=C(O)[C@H]3C=C[C@]21Cc1cc(O)c2c(c13)O[C@@]1(C(=O)OC)C(=C(O)[C@@H](O)C[C@@H]1O)C2=O` [Compound 4, Xanthoquinodin B12], the negative logarithm of the IC50 (pIC50) is 4.87 in the data set “Cytotoxicity, MTT method” (mouse) and 4.73 to 5.99 in data set [3]. In addition, the “Minimum inhibitory concentration (MIC)” value (in the data set on Mycobacterium smegmatis; in data set [1]; with Candida albicans; in the data set on Pichia anomala; in data set [2]; with Pseudomonas aeruginosa) was “–” throughout. Besides, the “Minimum inhibitory concentration (MIC)” value with Escherichia coli was “–”. In addition, the MIC in the data set with Rhodotorula glutinis turned out to be 66.7 µg/mL (≈ 101 µM); in the data set with Mucor hiemalis it was 66.7 µg/mL (≈ 101 µM); in the data set on Staphylococcus aureus it was 2.1 µg/mL (≈ 3.18 µM); with Micrococcus luteus, 2.1 µg/mL (≈ 3.18 µM); in the data set on Bacillus subtilis, 0.8 µg/mL (≈ 1.21 µM).

Regarding `COC(=O)[C@]12Oc3c(c(O)cc4c3[C@@H]3C=C[C@]5(C4)C(=C3O)C(=O)c3c(O)cc(C)cc3[C@@H]5OC(C)=O)C(=O)C1=C(O)CC[C@@H]2O` [Compound 5, Xanthoquinodin B13], the pIC50 in “Cytotoxicity, MTT method” (mouse) was 5.95; in data set [3], 5.84 to 7.52. Further, the “Minimum inhibitory concentration (MIC)” value (in the data set on Mycobacterium smegmatis; in the data set on Rhodotorula glutinis; in data set [1]; in the data set on Candida albicans; with Pichia anomala; in data set [2]) was “–” each time. Also, the “Minimum inhibitory concentration (MIC)” value with Pseudomonas aeruginosa and in the data set with Escherichia coli was “–” each time. Also, the MIC in the data set on Mucor hiemalis came out at 66.7 µg/mL (≈ 108 µM); in the data set with Staphylococcus aureus it was 8.3 µg/mL (≈ 13.5 µM); in the data set with Micrococcus luteus, 2.1 µg/mL (≈ 3.41 µM); with Bacillus subtilis it was 0.2 µg/mL (≈ 0.324 µM).

Regarding `CCCC(=O)O[C@H]1c2cc(C)cc(O)c2C(=O)C2=C(O)[C@H]3C=C[C@]21Cc1cc(O)c2c(c13)O[C@@](C(=O)OC)([C@@H]1CCC(=O)O1)CC2=O` [Compound 6, Xanthoquinodin B14], the pIC50 in “Cytotoxicity, MTT method” (setting [4]) is 5.51; in the data set “Cytotoxicity, MTT method” (human, A549 lung cancer cells), 4.73; in “Cytotoxicity, MTT method” (setting [5]), 5.47; in “Cytotoxicity, MTT method” (setting [6]), 5.96; in the data set “Cytotoxicity, MTT method” (setting [7]), 5.27; in the data set “Cytotoxicity, MTT method” (setting [8]), 5.41. The pIC50 in “Cytotoxicity, MTT method” (mouse, L929 fibroblasts) was 4.98; in data set [3], 4.73 to 5.99. Besides, the “Minimum inhibitory concentration (MIC)” value (with Mycobacterium smegmatis; with Rhodotorula glutinis; in data set [1]; with Candida albicans; with Pichia anomala; in [2]) was “–” each time. For the same compound, the “Minimum inhibitory concentration (MIC)” value in the data set on Pseudomonas aeruginosa and with Escherichia coli was “–” throughout. Besides, the MIC amounted to 66.7 µg/mL (≈ 103 µM) in the data set on Mucor hiemalis, 4.2 µg/mL (≈ 6.52 µM) in the data set on Staphylococcus aureus, 8.3 µg/mL (≈ 12.9 µM) in the data set on Micrococcus luteus and 4.2 µg/mL (≈ 6.52 µM) in the data set on Bacillus subtilis.

For the compound `CNC(C)C1CCC(N)C(OC2C(N)CC(N)C(OC3OCC(C)(O)C(NC)C3O)C2O)O1` (stereo not drawn) [gentamicin, reference compound], the MIC in the data set with Pseudomonas aeruginosa (setting [9]) was 0.4 µg/mL (≈ 0.838 µM).

For `NC[C@H]1O[C@H](O[C@H]2[C@H](O)[C@@H](O[C@H]3O[C@H](CO)[C@@H](O)[C@H](N)[C@H]3O)[C@H](N)C[C@@H]2N)[C@H](O)[C@@H](O)[C@@H]1O` [kanamycin, reference compound], the “Minimum inhibitory concentration (MIC)” value in the data set on Mycobacterium smegmatis is 1.70 ^3 µg/mL.

`C[C@@H]1[C@H](O)[C@@H](C)/C=C/C=C/CC/C=C/C=C/C=C/C=C/C(O[C@H]2O[C@H](C)[C@@H](O)[C@H](N)[C@@H]2O)CC2O[C@](O)(CC(O)C(O)CCC(O)CC(O)CC(O)CC(=O)O[C@H]1C)CC(O)C2C(=O)O` (stereo partly drawn) [nystatin, reference compound]: the “Minimum inhibitory concentration (MIC)” value was 16.70 ^1 µg/mL in the data set on Rhodotorula glutinis; 33.30 ^1 µg/mL in data set [1]; 33.30 ^1 µg/mL in the data set with Candida albicans; 33.30 ^1 µg/mL in the data set with Pichia anomala; 33.30 ^1 µg/mL in the data set on Mucor hiemalis.

For `CN(C)[C@@H]1C(O)=C(C(N)=O)C(=O)[C@@]2(O)C(O)=C3C(=O)c4c(O)cccc4[C@@](C)(O)[C@H]3[C@H](O)[C@@H]12` [oxytetracycline, reference compound], the MIC in data set [2] (setting [9]) is 0.8 µg/mL (≈ 1.74 µM); in the data set on Escherichia coli (setting [9]), 3.3 µg/mL (≈ 7.17 µM); in the data set on Staphylococcus aureus, 0.4 µg/mL (≈ 0.869 µM); in the data set with Micrococcus luteus, 0.8 µg/mL (≈ 1.74 µM); in the data set with Bacillus subtilis, 8.3 µg/mL (≈ 18 µM).

Source of the values: PMC7712541, “Seven New Cytotoxic and Antimicrobial Xanthoquinodins from Jugulospora vestita” (Journal of Fungi, 2020).
